This assay concerns the target T1, Ribonuclease pancreatic (Homo sapiens, UniProt P07998).
T1 sequence (P07998 whole entry): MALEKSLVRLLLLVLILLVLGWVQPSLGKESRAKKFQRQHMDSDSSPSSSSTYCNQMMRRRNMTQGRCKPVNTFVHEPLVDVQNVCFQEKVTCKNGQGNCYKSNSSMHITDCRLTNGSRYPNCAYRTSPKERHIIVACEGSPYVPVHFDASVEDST
The experiment in a line: Inhibition of ribonucleolytic activity of RNase A by agarose gel based assay.

Consider two molecules from ChEMBL document CHEMBL1152228, “Using proton nuclear magnetic resonance to study the mode of ribonuclease A inhibition by competitive and noncompetitive inhibitors” (Bioorg Med Chem Lett, 2008).

pKi: −log10 of the molar value.

The term pKi denotes the negative decadic logarithm of the Ki, by convention in mol/L.

In the case of `O=C(O)C1CCN([C@H]2[C@H](O)[C@H](n3ccc(=O)[nH]c3=O)O[C@@H]2CO)CC1`, the pKi is 3.99.
In the case of `CCOC(=O)C1CCN([C@H]2[C@H](O)[C@H](n3ccc(=O)[nH]c3=O)O[C@@H]2CO)CC1` it was 3.92.
